The values below come from US20220033418A1, “HETEROCYCLENE DERIVATIVES AS PEST CONTROL AGENTS” (Bayer Aktiengesellschaft, priority 2018, published 2022).

One data set concerns Spodoptera frugiperda. The data set is described as follows: Spodoptera frugiperda spray test. The class given is in vivo. Particulars: 100 g/ha, corn leaf disks, after 7 days. The method, then:
Spodoptera frugiperda—Spray Test Solvent: 78.0 parts by weight of acetone • • 1.5 parts by weight of dimethylformamide Emulsifier: alkylaryl polyglycol ether To produce a suitable active compound formulation, 1 part by weight of active compound is dissolved using the stated parts by weight of solvent and made up with water containing an emulsifier concentration of 1000 ppm until the desired concentration is attained. To produce further test concentrations, the formulation is diluted with emulsifier-containing water. Leaf disks of corn (Zea mays) are sprayed with an active compound formulation of the desired concentration and, after drying, populated with caterpillars of the fall armyworm (Spodoptera frugiperda). After 7 days, the efficacy in % is determined. 100% means that all the caterpillars have been killed; 0% means that no caterpillar has been killed.

The subject of data set [1] is Myzus persicae. The data set is described as follows: Myzus persicae oral test. The format is in vivo. Particulars: 4 ppm, after 5 days. The method, then:
Myzus persicae—Oral Test Solvent: 100 parts by weight of acetone To produce a suitable active compound formulation, 1 part by weight of active compound is dissolved using the specified parts by weight of solvent and made up with water until the desired concentration is attained. 50 μl of the active compound preparation are transferred into microtitre plates and made up to a final volume of 200 μl with 150 μl of IPL41 insect medium (33%+15% sugar). Subsequently, the plates are sealed with parafilm, which a mixed population of green peach aphids (Myzus persicae) within a second microtitre plate is able to puncture and imbibe the solution through. After 5 days, the efficacy in % is determined. 100% means that all the aphids have been killed; 0% means that no aphids have been killed.

Data set [2] in a line: log P by reversed-phase HPLC, acidic range. The class given is physicochemical. Conditions: reversed-phase C18 HPLC column, formic acid in water/acetonitrile. The protocol:
The log P values were determined according to EEC Directive 79/831 Annex V.A8 by HPLC (high-performance liquid chromatography) on a reversed-phase column (C18) using the following methods: ^[a] The log P value is determined by LC-UV measurement in the acidic range using 0.9 ml/1 formic acid in water and 1.0 ml/1 formic acid in acetonitrile as mobile phases (linear gradient from 10% acetonitrile to 95% acetonitrile). Calibration was carried out using a homologous series of straight-chain alkan-2-ones (having 3 to 16 carbon atoms) with known log P values. The values between successive alkanones are determined by linear regression.

The test system of data set [3] is Diabrotica balteata. As to the kind of experiment: Diabrotica balteata spray test. The format is in vivo. Conditions: 500 g/ha (=160 μg/cavity), after 7 days. The protocol:
Diabrotica balteata—Spray Test Solvent: 78 parts by weight of acetone • • 1.5 parts by weight of dimethylformamide Emulsifier: alkylaryl polyglycol ether To produce a suitable active compound formulation, 1 part by weight of active compound is dissolved using the stated parts by weight of solvent and made up with water containing an emulsifier concentration of 1000 ppm until the desired concentration is attained. To produce further test concentrations, the formulation is diluted with emulsifier-containing water. Pre-swollen wheat grains (Triticum aestivum) are incubated in a multiwell plate filled with agar and a little water for one day (5 seed grains per cavity). The germinated wheat grains are sprayed with an active compound formulation of the desired concentration. Subsequently, each cavity is infected with 10-20 beetle larvae of Diabrotica balteata. After 7 days, the efficacy in % is determined. 100% means that all wheat plants have grown as in the untreated, uninfected control; 0% means that no wheat plant has grown.

Data set [4] concerns Diabrotica balteata. As to the kind of experiment: Diabrotica balteata drench test (DIABBA), comparative. The format is in vivo. Conditions: soil, 192 h, 8 dat (days after treatment), read-out: % Efficacy DIABBA. The method, then:
Diabrotica balteata—Drench Test (DIABBA) Solvent: 7 parts by weight of dimethylformamide Emulsifier: 2 parts by weight of alkylaryl polyglycol ether To produce a suitable active compound preparation, 1 part by weight of active compound is mixed with the specified amounts of solvent and emulsifier, and the concentrate is diluted with water to the desired concentration, it being necessary to include the volume of soil which is drenched in the calculation. It should be ensured that a concentration of 40 ppm of emulsifier in the soil is not exceeded. To produce further test concentrations, water is used for dilution. In each case 5 […] (Zea mays) are sown into pots filled with earth, and the next day the pots are watered with the active compound preparation of the desired concentration. After one day, about 25 L2 larvae of the banded cucumber beetle (Diabrotica balteata) are added. After 8 days, the efficacy in % is determined. 100% means that all 5 plants have germinated and grown; 0% means that none of the plants has emerged.

For data set [5], the system named is Myzus persicae. The data set is described as follows: Myzus persicae spray test (Chinese cabbage leaf disks). The format is in vivo. Conditions: 100 g/ha, after 5 days. The protocol: Myzus persicae—Spray Test Solvent: 78 parts by weight of acetone • • 1.5 parts by weight of dimethylformamide Emulsifier: alkylaryl polyglycol ether To produce a suitable active compound formulation, 1 part by weight of active compound is dissolved using the stated parts by weight of solvent and made up with water containing an emulsifier concentration of 1000 ppm until the desired concentration is attained. To produce further test concentrations, the formulation is diluted with emulsifier-containing water. Disks of Chinese cabbage leaves (Brassica pekinensis) infested by all stages of the green peach aphid (Myzus persicae) are sprayed with an active compound formulation of the desired concentration. After 5 days, the efficacy in % is determined. 100% means that all the aphids have been killed; 0% means that no aphids have been killed.

The test system of a further data set is Phaedon cochleariae. The data set is described as follows: Phaedon cochleariae spray test. The format is in vivo. Conditions: 100 g/ha, Chinese cabbage leaf disks, after 7 days. The method, then:
Phaedon cochleariae—Spray Test
Solvent: 78.0 parts by weight of acetone • • 1.5 parts by weight of dimethylformamide
Emulsifier: alkylaryl polyglycol ether
To produce a suitable active compound formulation, 1 part by weight of active compound is dissolved using the stated parts by weight of solvent and made up with water containing an emulsifier concentration of 1000 ppm until the desired concentration is attained. To produce further test concentrations, the formulation is diluted with emulsifier-containing water.
Disks of Chinese cabbage leaves (Brassica pekinensis) are sprayed with an active compound formulation of the desired concentration and, after drying, populated with larvae of the mustard beetle (Phaedon cochleariae).
After 7 days, the efficacy in % is determined. 100% means that all the beetle larvae have been killed; 0% means that no beetle larvae have been killed.

Data set [6] has as its system Myzus persicae. As to the kind of experiment: Myzus persicae spray test (MYZUPE), comparative, bell pepper plants. The class given is in vivo. Conditions: 144 h, 6 dat (days after treatment), read-out: % Efficacy MYZUPE. The protocol:
Myzus persicae—Spray Test (MYZUPE) Solvent: 14 parts by weight of dimethylformamide Emulsifier: alkylaryl polyglycol ether To produce a suitable active compound formulation, 1 part by weight of active compound is dissolved using the stated parts by weight of solvent and made up with water containing an emulsifier concentration of 1000 ppm until the desired concentration is attained. To produce further test concentrations, the formulation is diluted with emulsifier-containing water. If the addition of ammonium salts or/and penetrants is required, these are each added in a concentration of 1000 ppm to the formulation solution. Bell pepper plants (Capsicum annuum) severely infested with the green peach aphid (Myzus persicae) are treated by spraying with the active compound formulation in the desired concentration. After the desired time, the kill in % is determined. 100% means that all the animals have been killed; 0% means that no animals have been killed.

The subject of the next data set is Ctenocephalides felis. The data set is described as follows: Ctenocephalides felis oral test. The class given is in vivo. Conditions: 100 ppm, oral via blood, after 2 days. The protocol: Ctenocephalides felis—Oral Test
Solvent: dimethyl sulfoxide
To produce a suitable active compound formulation, 10 mg of active compound are mixed with 0.5 ml of dimethyl sulfoxide. Dilution with citrated cattle blood gives the desired concentration.
About 20 unfed adult cat fleas (Ctenocephalides fells) are placed into a chamber which is closed at the top and bottom with gauze. A metal cylinder whose bottom end is closed with parafilm is placed onto the chamber. The cylinder contains the blood/active compound formulation, which can be imbibed by the fleas through the parafilm membrane.
After 2 days, the kill in % is determined. 100% means that all of the fleas have been killed; 0% means that none of the fleas have been killed.

The test system of the next data set is Boophilus microplus. As to the kind of experiment: Boophilus microplus injection test. The format is in vivo. Conditions: 20 μg/animal, assessed after 7 days. The method, then:
Boophilus microplus—Injection Test Solvent: dimethyl sulfoxide To produce a suitable active compound formulation, 10 mg of active compound are mixed with 0.5 ml of solvent and the concentrate is diluted to the desired concentration with solvent. 1 μl of the active compound solution is injected into the abdomen of 5 engorged adult female cattle ticks (Boophilus microplus). The animals are transferred into dishes and kept in a climate-controlled room. Efficacy is assessed after 7 days by laying of fertile eggs. Eggs which are not visibly fertile are stored in a climate-controlled cabinet until the larvae hatch after about 42 days. An efficacy of 100% means that none of the ticks has laid any fertile eggs; 0% means that all the eggs are fertile.

In general, chromatographic logP refers to a lipophilicity value derived from retention on a column. Regarding `CCS(=O)(=O)c1c(-c2nc3cc4c(cc3n2C)OC(F)(F)O4)nn2cc(C3(C#N)CC3)ccc12` [Example I-3, 1-[2-(2,2-Difluoro-7-methyl-[1,3]dioxolo[4,5-f]benzimidazol-6-yl)-3-ethylsulfonylpyrazolo[1,5-a]pyridin-6-yl]cyclopropanecarbonitrile], the efficacy in the data set with Spodoptera frugiperda, in the data set on Myzus persicae [1] and in the data set with Diabrotica balteata [3] was 100% in each case. Further, the chromatographic logP in data set [2] amounted to 3.18.
Consider `CCS(=O)(=O)c1c(-c2nc3cc(OC(F)(F)F)cnc3n2C)nn2cc(C3(C#N)CC3)ccc12` [Example I-1, 1-[3-Ethylsulfonyl-2-[3-methyl-6-(trifluoromethoxy)imidazo[4,5-b]pyridin-2-yl]pyrazolo[1,5-a]pyridin-6-yl]cyclopropanecarbonitrile], for which the efficacy with Spodoptera frugiperda, in the data set with Myzus persicae [1], in the data set on Myzus persicae [5] and in the data set on Phaedon cochleariae was 100% each time. This compound had a chromatographic logP in [2] of 3.18. Besides, the results for the Emax at 0.8 ppm in the data set with Diabrotica balteata [4] and with Myzus persicae [6] were 80% and 100%, respectively. The “efficacy (kill in %)” value in the data set with Ctenocephalides felis is reported as 100%.
As to `CCS(=O)(=O)c1c(-c2nc3cc(OC(F)(F)C(F)(F)F)cnc3n2C)nn2cc(C3(C#N)CC3)ccc12` [Example I-5, 1-[3-Ethylsulfonyl-2-[3-methyl-6-(1,1,2,2,2-pentafluoroethoxy)imidazo[4,5-b]pyridin-2-yl]pyrazolo[1,5-a]pyridin-6-yl]cyclopropanecarbonitrile], the efficacy in the data set on Spodoptera frugiperda and in the data set with Diabrotica balteata [3] was 100% throughout. The chromatographic logP in data set [2] amounted to 3.76.
As to `CCS(=O)(=O)c1c(-c2nc3cc(C(F)(F)F)cnc3n2C)nn2cc(C3(C#N)CC3)ccc12` [prior art according to WO2017/155103, reference compound], the values for the Emax at 0.8 ppm in the data set on Diabrotica balteata [4] and in the data set on Myzus persicae [6] were 50% and 40%, respectively.
Consider `CCS(=O)(=O)c1c(-c2nc3cc4c(nc3n2C)OC(F)(F)O4)nn2cc(C3(C#N)CC3)ccc12` [Example I-4, 1-[3-Ethylsulfonyl-2-[2,2-difluoro-7-methyl-[1,3]dioxoloimidazo[4,5-b]pyridin-6-yl]pyrazolo[1,5-a]pyridin-6-yl]cyclopropanecarbonitrile], for which the efficacy in the data set on Spodoptera frugiperda amounted to 100%; with Myzus persicae [1] it was 100%; with Myzus persicae [5] it was 90%; in the data set on Phaedon cochleariae, 100%. This compound displayed a chromatographic logP in [2] of 3.22. In the data set with Ctenocephalides felis, the “efficacy (kill in %)” value was found to be 100%. Also, in the data set with Boophilus microplus, the “efficacy (no laying of fertile eggs)” value is on record as 80%.
In [2], `Cn1c(-c2nn3cc(C4(C#N)CC4)ccc3c2Br)nc2cc(OC(F)(F)F)cnc21` [1-[3-Bromo-2-[3-methyl-6-(trifluoromethoxy)imidazo[4,5-b]pyridin-2-yl]pyrazolo[1,5-a]pyridin-6-yl]cyclopropanecarbonitrile] yielded a chromatographic logP of 3.9.
`CCS(=O)(=O)c1c(-c2nc3cc(OC(F)(F)F)ccc3n2C)nn2cc(C3(C#N)CC3)ccc12` [Example I-2, 1-[3-Ethylsulfonyl-2-[1-methyl-5-(trifluoromethoxy)benzimidazol-2-yl]pyrazolo[1,5-a]pyridin-6-yl]cyclopropanecarbonitrile]: the efficacy in the data set with Spodoptera frugiperda, with Myzus persicae [1] and with Diabrotica balteata [3] was 100% in each case. In addition, the chromatographic logP in [2] came to 3.29.
